From patent US20160050920A1, “METHODS TO IMPROVE NODAL ROOTS” (Valent BioSciences Corporation, priority 2014, published 2016)

Assays:
Type in all cases: in vivo
[1] = tested on: Hybrid corn; assay: Example 1: potted hybrid corn, newest nodal roots after GA3 foliar spray
From the text: Hybrid corn seed was planted 3.8 centimeters (cm) deep on three separate dates in Miracle-Gro Potting Mix (Miracle-Grois a registered trademark owned by OMS Investments, Inc., Miracle-Gro Potting Mix is widely available at retail home improvement stores) in 2.5 gallon pots. The pots were filled with 0.007 cubic meters of potting mix. The seeds/plants were watered as needed. The second planting was 10 days after the first planting and the third planting was nine days after the second planting. The plants were treated with 0, 8.4 g ai/hectare, or 16.8 g ai/hectare of GA3 as formulated in RyzUp SmartGrass° (available from Valent BioSciences Corp.) using a TeeJet® 8002 VS spray tip on a manual sprayer set at 15 gallons per acre. Distilled water was used and non-ionic surfactant (0.25% v/v). The treatments were applied on the same day which was 28 days after the first planting (corn was at V6 stage), 18 days after the second planting (corn was at V3 or V4 stages), and 9 days after the third planting (corn was at V1 stage). Crop Heat Units are a way of calculating growth and are calculated on a daily basis, using the maximum (Tmax) and minimum (Tmin) daily air temperatures, measured from midnight to midnight, in degrees Celsius. The Crop Heat Unit (CHU) system uses the following equation which allows growers to more accurately predict the growth of crops compared to using calendar days: Tmax+Tmin÷2−Tbase, wherein Tbase is the base temperature for the crop. During this study, there were a few days following the treatments with temperatures exceeding 24 degrees Celsius and the nights dipped below 10 degrees Celsius. The week immediately following treatment, there was one day above 24 degrees Celsius, each night dipped below 10 degrees Celsius. […] The growth rate of corn also declines when temperatures are above 30 degrees Celsius. In this study, there was an average of 10 CHUs per day following treatment and a total of 83CHUs. The corn was harvested at 1, 2, and 3 weeks after treatment. The plants were washed and roots were separated from shoots.

[2] = tested on: Hybrid corn; assay: Example 4: field study, number and dry weight of roots in two corn hybrids; parameters: Dry weight of nodes 1 to 3 / Dry weight of nodes 4 to 7 / Total dry weight: unit not given here
Experimental: Another field study was conducted in order to determine the effects of GA3 on root development. Two types of hybrid corn seeds were planted during the spring season. The plants were treated with 0 or 2.75g ai/hectare of GA3 as formulated in RyzUp SmartGrass® using a TeeJet° 8002 VS spray tip on a manual sprayer set at 15 gallons per acre. Distilled water was used and non-ionic surfactant (0.25% v/v). The treatments were applied when the corn was at the V4 stage of development. The plants were then destructively harvested 32 days after treatments and their number of roots, dry weight, and dry weight of nodal roots were evaluated.

[3] = tested on: Hybrid corn; assay: Example 3: field study, root count of hybrid corn; conditions: 2.75 g ai/hectare at V4
Experimental: A field study was conducted in order to determine the effects of GA3 on root development. Hybrid corn seeds were planted and were treated when the corn was at the V4 stage of development sixteen days after planting. The treatments were 0 or 2.75g ai/hectare of GA3 as formulated in RyzUp SmartGrass® using a TeeJet® 8002 VS spray tips with a backpack sprayer set at 15 gallons per acre. Distilled water was used and non-ionic surfactant (0.25% v/v). The plants were then destructively harvested and their root count was evaluated.

[4] = Hybrid 1, 2.75 g ai/hectare at V4, 32 days after treatment
[5] = Hybrid 2, 2.75 g ai/hectare at V4, 32 days after treatment

**Q.** With C=C1C[C@]23C[C@@]1(O)CC[C@H]2[C@@]12C=C[C@H](O)[C@@](C)(C(=O)O1)[C@H]2[C@@H]3C(=O)O [GA3, gibberellic acid] as the molecule, how does the “# of newest nodal roots exposed/6 plants” value ([1]; 8.4 g ai/ha GA3) read?
**A.** 29

**Q.** And the “# of newest nodal roots exposed/plant” value ([1]; 8.4 g ai/ha GA3)?
**A.** 4.8

**Q.** What about the “# of newest nodal roots exposed/plant with newest nodal roots present” value ([1]; 8.4 g ai/ha GA3) of the same molecule?
**A.** 5.8

**Q.** And the “cm of newest nodal roots exposed/plant” value ([1]; 8.4 g ai/ha GA3)?
**A.** 4.2 cm

**Q.** What about the “cm of newest nodal roots exposed/plant with newest nodal roots” value ([1]; 8.4 g ai/ha GA3) of the same molecule?
**A.** 5.0 cm

**Q.** And the “% of plants with newest nodal roots exposed” value ([1]; 8.4 g ai/ha GA3, foliar spray)?
**A.** 83%

**Q.** And the “# of newest nodal roots exposed/6 plants” value ([1]; 16.8 g ai/ha GA3)?
**A.** 33

**Q.** And the “# of newest nodal roots exposed/plant” value ([1]; 16.8 g ai/ha GA3)?
**A.** 5.5

**Q.** And the “# of newest nodal roots exposed/plant with newest nodal roots present” value ([1]; 16.8 g ai/ha GA3)?
**A.** 5.5

**Q.** What about the “cm of newest nodal roots exposed/plant” value ([1]; 16.8 g ai/ha GA3) of the same molecule?
**A.** 5.3 cm

**Q.** What about the “cm of newest nodal roots exposed/plant with newest nodal roots” value ([1]; 16.8 g ai/ha GA3) of the same molecule?
**A.** 5.3 cm

**Q.** And the “% of plants with newest nodal roots exposed” value ([1]; 16.8 g ai/ha GA3, foliar spray)?
**A.** 100%

**Q.** And the “Dry weight of nodes 1 to 3” value [2, 4]?
**A.** 2.5

**Q.** And the “Dry weight of nodes 4 to 7” value [2, 4]?
**A.** 14.4

**Q.** What about the Total dry weight [2, 4] of the same molecule?
**A.** 16.9

**Q.** And the Total roots [2, 4]?
**A.** 53.2

**Q.** What about the “Dry weight of nodes 1 to 3” value [2, 5] of the same molecule?
**A.** 1.7

**Q.** And the “Dry weight of nodes 4 to 7” value [2, 5]?
**A.** 10.1

**Q.** What about the Total dry weight [2, 5] of the same molecule?
**A.** 11.8

**Q.** And the Total roots [2, 5]?
**A.** 39

**Q.** And the “root count, Treated Compared to Untreated % of Control” value ([3]; 1 day before treatment (baseline))?
**A.** 100.2 % of Control

**Q.** What about the “root count, Treated Compared to Untreated % of Control” value ([3]; 4 days after treatment) of the same molecule?
**A.** 105.6 % of Control

**Q.** What about the “root count, Treated Compared to Untreated % of Control” value ([3]; 7 days after treatment) of the same molecule?
**A.** 105.5 % of Control

**Q.** And the “root count, Treated Compared to Untreated % of Control” value ([3]; 13 days after treatment)?
**A.** 107.8 % of Control
